Test results taken from patent US8273788B2, “Five-membered iminocyclitol derivatives as selective and potent glycosidase inhibitors: new structures for antivirals and osteoarthritis therapeutics” (Academia Sinica, Taiwan, priority 2005, dated 2012).

How the values were obtained:
[1] = target: human placenta N-acetyl-β-hexosaminidase; test: Kinetic analysis of human placenta β-hexosaminidase; type: biochemical; details: substrate 4-MU-GNAc, pH 4.5
Experimental: Our strategy began with reductive amination of compound 5 with aldehydes of different lengths to give compounds 43-49 (FIG. 4). The intermediates were either deprotected under acidic conditions or hydrogenolysed to give primary amines 50-56. […] Thus, the inhibition studies of compounds 51-56 against human placenta N-acetyl-β-hexosaminidase were carried out. 4-Methylumbelliferyl N-acetyl-β-D-glucosaminide (4-MU-GNAc) was used as the substrate. The apparent Km and Vmax values for each substrate were calculated from the Lineweaver-Burke double reciprocal plot of [1/v]/[1/S]. The Ki values were determined from a replot of the Km (app) vs the inhibitor concentration. […] (FIG. 4). […] Compound 54 with a heptamine moiety was the strongest inhibitor. […] As the crystal structure of human β-hexosaminidase B is now avalible,^[43] its complex with 54 was modeled to reveal a narrow hydrophobic cleft in the active site, which is mainly enclosed by the side-chain groups of residues W424, Y450, […], L453 and the backbone of residues K425 and D426 (FIG. 5). The amino group at the terminal site is expected to be largely protonated when binding with the enzyme. It presumably forms a salt bridge with the secondary aglycon binding site of the enzyme.^[44] It appears that the alkyl linkage is long enough to bring the amine end near enough to have hydrogen-bond interactions with the backbone carbonyl of K425 and A447 and a possible ionic interaction with the carboxyl group of D426.
Kinetic analysis of human placenta β-hexosaminidase. Incubations were performed in a total volume of 200 μL. Unless otherwise stated, reaction mixtures contained 100 mM citrate buffer (pH 4.5), various amount of 4-methylumbelliferyl N-acetyl-β-D-glucosaminide, and various amounts of inhibitors with 0.02 mU/well of β-hexosaminidase. After incubation for 15 min at 30° C., the reaction was terminated by the addition of 0.5 M sodium glycine buffer, pH 10.5. Enzyme activity was measured by the release of 4-methylumbelliferone with the excitation wavelength of 360 nm and the emission wavelength of 460 nm.

[2] = system: Japanese encephalitis virus (JEV); details: earlier work [16]; cited from earlier work
[3] = system: dengue virus serotype 2 (DEN-2); details: earlier work [16]; cited from earlier work
[4] = system: dengue virus serotype 2 (DEN-2); test: Anti-DEN-2 cell-based assay (plaque forming assay, BHK-21 cells); details: M.O.I. = 0.1, virus production, BHK-21 cells; for IC50: read-out: DEN IC50; for IC90: read-out: DEN IC90
[5] = system: Japanese encephalitis virus (JEV); test: Anti-JEV cell-based assay (plaque forming assay, BHK-21 cells); details: M.O.I. = 0.1, virus production, BHK-21 cells; for IC50: read-out: JEV IC50; for IC90: read-out: JEV IC90
BHK-21 cells = test: XTT cell viability assay; type: cell-based; details: 10 μM, FIG. 2A
Experimental: XTT assay. To determine cell viability, a colorimetric XTT-based assay was performed (Cell Proliferation Kit II; Roche). BHK-21 cells in a 96-well plate were incubated with various concentrations of inhibitors for 2 days before the XTT labeling reagent was added to the culture medium. Cells were incubated at 37° C. for about 30 min and then read by an enzyme-linked immunosorbent assay (ELISA) reader at 450 nm (Molecular Devices).

[6] = system: human chondrosarcoma cells; details: cell-associated fraction and culture supernatant; previous study; cited from earlier work
[7] = target: human N-acetyl-β-hexosaminidases; details: previous study [30]; cited from earlier work
SARS-CoV = type: cell-based, SARS-CoV (H. K. strain); details: Vero E6 cells
[8] = target: N-acetyl-β-hexosaminidase; test: N-acetyl-β-hexosaminidase inhibition assay (in situ screen, IC50, Ki); type: biochemical, jack bean
Experimental: (§1) A mixture of iminocyclitol 4, a carboxylic acid (1 equiv, Scheme 2), diisopropyl ethylamine (DIEA, 2.2 equiv), and (1H-benzotriazole-1-yl)-1,1,3,3-tetramethyl-uronium hexafluorophosphate (HBTU, 1.1 equiv) in DMSO was shaken in 96-well microtiter plates for 5 h. Crude reaction products were randomly selected (30%) and analyzed by ESI-MS to ensure the presence of the desired products. The reaction mixture was diluted by appropriate buffer solutions and transferred to another 96-well microtiter plate for screening directly without any purification. […] Assuming the amide formation is complete, the percentage of inhibition relative to the control was calculated on the basis of absorbance at 405 nm for p-nitrophenol released from their corresponding substrates.
(§2) Enzyme assay. General procedure for the assay with various glycosidases. The initial velocities of the hydrolysis were measured spectrophotometrically at various concentrations of p-nitrophenyl-glycopyranoside (4 mM, 2 mM, 1 mM, 0.5 mM, 0.25 mM, 0.125 mM, 0.0625 mM) at 405 nm using Bio Assay Reader (Perkin Elmer HTS 7000 Plus) at 30° C. The obtained data were fitted into the Michaelis-Menten equation by using the Kaleida Graph program to determine the apparent Km values. […] The assays performed in wells of the microtiter plate contained either sodium phosphate buffer (50 mM, pH 7, for α- and β-glucosidase, α- and β-galactosidase, α- and β-mannosidase, α-fucosidase), or Mcllvaine's buffer (25 mM, pH 6, N-acetyl-β-hexosaminidase, jack bean).
(§3) The secondary plot was generated by plotting the apparent Km values as a function of inhibitor concentrations. Ki was calculated from the negative value of the x-intercept of this plot.

α-glucosidase = target: T1, α-glucosidase (Saccharomyces cerevisiae, UniProt P53341); test: α-glucosidase inhibition assay (in situ screen, IC50, Ki); type: biochemical, baker's yeast
T1 construct: purchased Sigma Co. (St. Louis, Mo.); host or cells: baker's yeast
T1 sequence (P53341 whole entry): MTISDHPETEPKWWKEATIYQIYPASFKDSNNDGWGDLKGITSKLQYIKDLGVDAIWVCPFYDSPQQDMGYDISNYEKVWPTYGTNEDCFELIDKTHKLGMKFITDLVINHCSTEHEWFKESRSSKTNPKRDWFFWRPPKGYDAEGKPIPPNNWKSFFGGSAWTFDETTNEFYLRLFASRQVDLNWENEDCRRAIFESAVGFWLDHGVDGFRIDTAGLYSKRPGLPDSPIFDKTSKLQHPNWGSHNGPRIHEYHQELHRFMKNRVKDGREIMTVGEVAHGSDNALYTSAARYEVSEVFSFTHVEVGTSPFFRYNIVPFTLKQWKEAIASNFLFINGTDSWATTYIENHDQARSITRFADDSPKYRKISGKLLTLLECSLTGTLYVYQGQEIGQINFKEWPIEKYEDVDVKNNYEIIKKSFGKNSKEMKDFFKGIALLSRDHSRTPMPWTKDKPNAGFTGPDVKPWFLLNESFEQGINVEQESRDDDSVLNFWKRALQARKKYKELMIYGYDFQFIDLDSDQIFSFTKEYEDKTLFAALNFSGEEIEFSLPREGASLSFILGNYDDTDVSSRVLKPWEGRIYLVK
Experimental: as §1
General procedure for coupling reactions and in situ screening. To a DMSO solution (10 μL) in each well of a 96-well microtiter plate was added each carboxylic acid (10 μL from a 10 mm stock solution in DMSO, 0.1 μmol), HBTU (10 μL from a 11 mm stock solution in DMSO, 1.1 equiv, 0.11 μmol), and DIEA (10 μL from a 22 mM stock solution in DMSO, 2.2 equiv, 0.22 μmol).
as §2, §3

β-glucosidase = β-glucosidase inhibition assay (in situ screen, IC50, Ki); type: biochemical, almonds
Experimental: as §1, §2, §3

[9] = reaction product at 20 μM, in situ screening

CCCCCCCCN1C(CO)C(O)C(O)C1CNC(C)=O (stereo not drawn) [Compound 59]
Ki [1]: 0.16 µM

CC(=O)NCC1C(O)C(O)C(CO)N1CCOCCOCCN (stereo not drawn) [Compound 56]
Ki [1]: 0.06 µM

CCCCCCN1C(CO)C(O)C(O)C1CNC(C)=O (stereo not drawn) [Compound 57]
Ki [1]: 0.18 µM

CCCCCCCN1C(CO)C(O)C(O)C1CNC(C)=O (stereo not drawn) [Compound 58]
Ki [1]: 0.25 µM

CC(=O)NCC1C(O)C(O)C(CO)N1CCCCCCCN (stereo not drawn) [Compound 54]
Ki [1]: 0.0026 µM

CCCCCCCCCN1C[C@H](O)[C@@H](O)[C@@H](O)[C@H]1CO [NN-DGJ, N-nonyldeoxygalactonojirimycin]
inhibition of JEV [2]: did not inhibit
inhibition of DEN-2 [3]: did not inhibit

CCCCCCCCCCCCN1C(CO)C(O)C(O)C1CNC(=O)C1Cc2ccccc21 (stereo not drawn) [Compound 38]
IC50 [4]: 6 ± 0.5 µM
IC90 [4]: 9.1 ± 0.3 µM
IC50 [5]: 7.6 ± 0.1 µM
IC90 [5]: 9.7 ± 0.1 µM
cytotoxicity (XTT assay, cell proliferation) (BHK-21 cells): low level of cytotoxicity

CC(=O)NC[C@@H]1[C@@H](O)[C@H](O)[C@@H](CO)N1C [Compound 42, (2R,3R,4R,5R)—N-methyl-2-(acetamido-methyl)-3,4-dihydroxy-5-(hydroxymethyl)pyrrolidine]
effect on glycosaminoglycans (GAGs) [6]: accumulation of glycosaminoglycans (GAGs) in the cell-associated fraction and a decrease in the release of GAGs into the culture supernatant
Ki [7]: 0.024 µM

CCCCCCCCCCN1C(CO)C(O)C(O)C1CNC(=O)C1Cc2ccccc21 (stereo not drawn) [Compound 37]
IC50 (SARS-CoV): 3.3 to 10 µM
IC50 [4]: 4.7 µM
IC90 [4]: 9.2 µM
IC50 [5]: 9.6 ± 0.8 µM
IC90 [5]: 18 ± 0.2 µM

CC(=O)NC[C@H]1N[C@H](CO)[C@@H](O)[C@@H]1O [Compound 5]
IC50 ([8]; pure compound, read-out: N-acetyl-β-hexosaminidse IC50): 0.16 µM
N-acetyl-β-hexosaminidse Inhibition (%) ([8]; reaction product at 30 μM, in situ screening): 85%
Ki ([8]; value in brackets, read-out: N-acetyl-β-hexosaminidse (Ki)): 0.022 µM
IC50 (α-glucosidase; pure compound): 280 µM
inhibition at 20 µM (α-glucosidase; [9]): 12%
IC50 (β-glucosidase; pure compound): > 500 µM
β-glucosidase Inhibition (%) (β-glucosidase; [9]): 20%
Ki [7]: 0.024 µM
